Assay results reported in patent US8969304B2, “Compositions and methods for the prevention of cancer in high risk patients” (The Institute for Cancer Research, priority 2010, dated 2015).
Each block holds one compound with its values, some of them ahead of it. Residues, ends and D or L forms follow the SMILES beside them. No end group written: not given here.

Assays:
MCF-10F cells [1] = settings: cells treated with E2; cited from earlier work
MCF-10F cells [2] = type: cell-based, human
LHCGR = assay: real time RT-PCR, LHCGR gene expression; type: cell-based, human
CXCR1 = assay: real time RT-PCR, CXCR1 gene expression; type: cell-based, human
GPR30 = assay: real time RT-PCR, GPR30 gene expression; type: cell-based, human; settings: treated MCF-10F cells, data not shown
FAK/AKT/FOXO3A pathway = assay: FAK, AKT and FOXO3A expression (unpublished data); type: cell-based; settings: previous results
[3] = molecular target: T1, LH/hCG binding to rat ovarian membranes (Rattus norvegicus, UniProt P16235); settings: among two series of overlapping peptides of hCG (ref. 15); cited from earlier work
T1 construct: from tissue; host or cells: rat ovarian membranes

MCF-10F cells [4] = assay: ductulogenesis and branching of MCF-10F cells in 3D collagen matrix; type: cell-based, human; settings: MCF-10F cells in collagen matrix, added to the culture medium
From the text: (§1) The cells grow along hollow branches forming ductules lined by a monolayer of epithelial cells. […] For these studies, we designed oligopeptides of the hCG beta subunit and had them synthesized by AAPPTec, LLC, Louisville, Ky. We selected a 15 aa peptide with a sequence “N”-[…]-“C” (SEQ ID NO: 2) that encompasses aa 81-95 and was designated PPFC-879-81-95.

[5] = test system: E2-transformed MCF-10F cells; assay: solid mass formation and branching of E2-transformed MCF-10F cells in collagen; type: cell-based, human; settings: compared with r-hCG
[6] = test system: E2-transformed MCF-10F cells; assay: invasiveness (cells traversing a matrigel membrane); type: cell-based, human
From the text: (§2) FIG. 2: (A) Effect of 17b-estradiol (E2), r-hCG and PPFC-879-81-95 peptide on formation of primary, secondary, and tertiary ducts by MCF10F cells grown in a collagen matrix. DMSO served as control. Ordinate, percentage of structures. (B) Effect of r-hCG and hCG peptide on colony formation. Only DMSO-treated (control) E2-cells formed solid masses. (C) Effect of r-hCG and hCG peptide on the invasive index of MCF10F, E2-transformed, E2T4, MCF-7 and MDA-MB-435 cells. Ordinate, number of cells traversing a matrigel membrane.
as §1

MCF-10F cells [7] = assay: as above; type: cell-based, human
From the text: as §2, §1

MCF-7 = assay: as above; type: cell-based, human
From the text: as §2, §1

MDA-MB-435 = assay: as above; type: cell-based, human
From the text: as §2, §1

tumor derived E2T4 cells = assay: as above; type: cell-based, human
From the text: as §2, §1

[8] = test system: human breast epithelial cells; assay: genomic analysis of r-hCG and peptide-treated cells; type: cell-based
From the text: The down-regulation of BMI1 supports the concept that the preventive effect of hCG results from the shifting of the stem cell 1 to stem cell 2 (Russo, J., et al., (2006) Front Biosci., 11:151-172). This is only one example of identification of the molecular determinants of hormone specificity which provide the means to target the CG/LH-R for activation thereby conferring the protective effects against breast cancer.

LH/hCG-R in MA-10 cells = molecular target: T2, LH/hCG-R in MA-10 cells (Mus musculus, UniProt P30730); assay: intracellular cAMP production (enzyme immunoassay); type: cell-based; settings: 2.5 μg r-hCG/ml or 20 μM PPFC-879-81-95
T2 construct: endogenous in cells; host or cells: MA-10 mouse Leydig tumor cells

LH/hCG-R in MCF10F cells = molecular target: T3, LH/hCG-R in MCF10F cells (Homo sapiens, UniProt P22888); assay: intracellular cAMP production (enzyme immunoassay); type: cell-based; settings: 2.5 μg r-hCG/ml or 20 μM PPFC-879-81-95
T3 construct: For verifying the presence and functionality of the receptor in normal and transformed MCF10F cells; endogenous in cells; host or cells: MCF10F human breast epithelial cells
T3 sequence (P22888 27-699): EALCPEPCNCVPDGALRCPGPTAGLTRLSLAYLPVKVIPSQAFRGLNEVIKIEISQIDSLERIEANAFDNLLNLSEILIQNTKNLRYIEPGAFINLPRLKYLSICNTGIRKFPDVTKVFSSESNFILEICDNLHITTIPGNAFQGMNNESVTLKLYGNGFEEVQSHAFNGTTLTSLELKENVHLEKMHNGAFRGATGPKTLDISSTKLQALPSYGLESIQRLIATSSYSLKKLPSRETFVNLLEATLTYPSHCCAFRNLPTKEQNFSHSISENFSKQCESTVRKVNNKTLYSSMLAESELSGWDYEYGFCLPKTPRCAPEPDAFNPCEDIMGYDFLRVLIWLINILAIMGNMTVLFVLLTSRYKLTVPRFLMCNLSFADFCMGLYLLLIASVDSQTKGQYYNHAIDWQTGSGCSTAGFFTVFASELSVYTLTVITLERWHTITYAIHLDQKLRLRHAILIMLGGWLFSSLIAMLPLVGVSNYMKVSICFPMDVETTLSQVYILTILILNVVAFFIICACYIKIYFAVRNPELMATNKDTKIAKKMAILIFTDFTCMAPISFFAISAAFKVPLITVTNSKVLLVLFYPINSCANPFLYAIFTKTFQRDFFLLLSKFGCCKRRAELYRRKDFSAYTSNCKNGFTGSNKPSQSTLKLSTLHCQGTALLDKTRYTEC

T2 sequence (P30730 27-700): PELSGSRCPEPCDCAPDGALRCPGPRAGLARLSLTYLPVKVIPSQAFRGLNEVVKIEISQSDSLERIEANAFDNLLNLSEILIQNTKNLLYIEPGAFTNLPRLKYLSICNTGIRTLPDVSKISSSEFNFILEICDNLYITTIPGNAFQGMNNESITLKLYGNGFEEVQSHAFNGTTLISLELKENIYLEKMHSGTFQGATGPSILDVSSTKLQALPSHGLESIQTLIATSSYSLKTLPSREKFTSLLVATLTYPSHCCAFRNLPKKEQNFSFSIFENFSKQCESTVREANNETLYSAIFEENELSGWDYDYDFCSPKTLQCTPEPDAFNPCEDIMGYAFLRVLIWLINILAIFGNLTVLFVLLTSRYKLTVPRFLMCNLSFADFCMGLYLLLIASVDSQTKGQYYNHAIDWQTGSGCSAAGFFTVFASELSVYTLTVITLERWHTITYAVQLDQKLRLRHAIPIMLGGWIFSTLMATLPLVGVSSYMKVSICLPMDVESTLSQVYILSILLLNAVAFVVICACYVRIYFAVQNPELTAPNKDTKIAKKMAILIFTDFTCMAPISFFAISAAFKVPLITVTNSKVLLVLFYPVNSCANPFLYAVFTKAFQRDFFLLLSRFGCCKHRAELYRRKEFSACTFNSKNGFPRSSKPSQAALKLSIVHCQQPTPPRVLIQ
T1 sequence (P16235 27-700): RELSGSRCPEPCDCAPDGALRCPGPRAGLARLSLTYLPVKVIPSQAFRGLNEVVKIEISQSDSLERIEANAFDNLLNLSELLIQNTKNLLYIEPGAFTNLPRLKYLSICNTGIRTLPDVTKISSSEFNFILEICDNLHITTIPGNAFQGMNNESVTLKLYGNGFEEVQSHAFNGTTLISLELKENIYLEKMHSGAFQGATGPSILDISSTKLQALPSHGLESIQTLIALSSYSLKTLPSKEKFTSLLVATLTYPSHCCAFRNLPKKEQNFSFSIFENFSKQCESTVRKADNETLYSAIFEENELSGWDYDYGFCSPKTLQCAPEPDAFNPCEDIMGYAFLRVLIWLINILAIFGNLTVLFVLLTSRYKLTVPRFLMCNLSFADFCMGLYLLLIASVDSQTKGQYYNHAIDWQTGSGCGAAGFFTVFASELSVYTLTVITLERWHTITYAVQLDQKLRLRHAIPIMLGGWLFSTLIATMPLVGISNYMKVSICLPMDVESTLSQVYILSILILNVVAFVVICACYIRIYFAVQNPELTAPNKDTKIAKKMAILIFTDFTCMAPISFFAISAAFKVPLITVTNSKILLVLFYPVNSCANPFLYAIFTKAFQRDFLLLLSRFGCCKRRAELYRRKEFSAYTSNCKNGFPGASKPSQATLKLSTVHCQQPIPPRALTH

Compound: C[C@]12CC[C@@H]3c4ccc(O)cc4CC[C@H]3[C@@H]1CC[C@@H]2O [E2, 17-β-estradiol]
structures formed by MCF-10F cells in collagen after treatment (MCF-10F cells [1]): forming instead spherical structures with a multilayered epithelium that exhibits marked atypia

Compound: CC(C)C[C@H](NC(=O)[C@H](C)NC(=O)[C@@H](NC(=O)[C@@H]1CCCN1C(=O)[C@H](Cc1ccccc1)NC(=O)[C@@H](N)CO)C(C)C)C(=O)N[C@@H](CO)C(=O)N[C@@H](CS)C(=O)N[C@@H](CCCNC(=N)N)C(=O)N[C@@H](CS)C(=O)NCC(=O)N1CCC[C@H]1C(=O)N[C@@H](CS)C(=O)N[C@@H](CCCNC(=N)N)C(=O)N[C@@H](CCCNC(=N)N)C(N)=O [peptide, SFP VAL SCR CGP CRR-NH2] (H-SFPVALSCRCGPCRR-NH2; N-terminus assumed)
cell proliferation inhibition, peptide versus hCG (MCF-10F cells [2]; days 10 and 12, p<0.02): more potent cell proliferation inhibitor than hCG | decrease in the number of viable cells (MCF-10F cells [2]; human, 20 μM): 36-72% | hCG receptor (LHCGR) gene expression (LHCGR; MCF-10F, from the first day of treatment on): up-regulated | LHCGR gene expression, peptide versus hCG (LHCGR; last day of treatment (15th), p=0.06): tendency of the peptide to induce a higher levels gene expression than hCG | CXCR1 expression (CXCR1; MCF-10F, all along the treatment): down-regulated | CXCR1 down-regulation, peptide versus hCG (CXCR1; last day of treatment (15), p<0.01): down-regulation of the receptor was more apparent in the peptide-treated cells than in hCG treated cells | GPR30 mRNA expression (GPR30): undetectable or very low values | FAK and AKT (FAK/AKT/FOXO3A pathway): decrease | FOXO3A expression (FAK/AKT/FOXO3A pathway): up-regulate | inhibition of 125I-labeled hCG binding [3]: most potent inhibitor of LH/hCG binding

intracellular cAMP production (LH/hCG-R in MA-10 cells): time-dependent increase | intracellular cAMP production (LH/hCG-R in MCF10F cells): time-dependent increase
Compound: Ser-Tyr-Ala-Val-Ala-Leu-Ser-Cys-Gln-Cys-Ala-Leu-Cys-Arg-Arg (NH2) (SYAVALSCQCALCRR-NH2; cysteine pairing not given here) [PPFC-879-81-95, 15 aa peptide of the hCG beta subunit, aa 81-95]
number of secondary and tertiary ducts (branching pattern) (MCF-10F cells [4]): increasing the number of secondary and tertiary ducts | formation of solid masses in collagen [5]: abrogated more efficiently than r-hCG | invasiveness [6]: inhibited invasiveness | invasiveness (MCF-10F cells [7]): inhibited invasiveness | invasiveness (MCF-7): inhibited invasiveness | invasiveness (MDA-MB-435): inhibited invasiveness | invasiveness (tumor derived E2T4 cells): inhibited invasiveness | gene clusters activated or downregulated [8]: induced activation or downregulation of the same clusters of genes that were modified by either parity or r-hCG treatment
